Molecular target: T1, GPR40 (Homo sapiens, UniProt O14842)
T1 construct: expressed in transfected cells; host or cells: HEK293 cells stably expressing GPR40 (Hygromycin selection)
Assay: IP1 accumulation assay in HEK293 cells stably expressing GPR40
Format: cell-based
Protocol: IP1 accumulation assay was used to evaluate the potency of compounds. HEK293 cells stably expressing GPR40 were cultured in 5% CO2 incubator (ThermoFisher) in maintenance media (Dulbecco's modified Eagle's medium with 4.5 g/L of glucose, 10% fetal bovine serum, 100 μg/mL Hygromycin, and Penicillin (100 U/mL)/Streptomycin (100 μg/mL)) till 100% confluency. Cells were harvested freshly, spun down at 300×g for 5 min, and resuspended in pre-warmed 1× stimulant buffer from Cisbio IP-One HTRF Detection kit (Cisbio). Cell density was adjusted to 2.0×10^6 cells/mL. DMSO was used as blank control and AMG-1638 (CAS #: 1142214-62-7) as positive control. Compounds were prepared at 10 mM in DMSO and 5 nL of 3× serially diluted compounds (10 concentrations) were added to each well of the 384-LDV assay plate (Corning) by using ECHO 550 (Labcyte). Five μL of cells in suspension were transferred into each well by using Multidrop Combi Reagent Dispenser (ThermoFisher). Assay plate was then sealed and incubated at 37° C. for 2 hours. IP-d2 reagent and anti-IP1 reagent were prepared following the manual (Cisbio). Five μL of IP1-d2 and then 5 μL of anti-IP1 antibody was added to each well sequentially. Assay plate was incubated at room temperature for 60 min and then read at 665 nm/615 nm on an Envision plate reader (PerkinElmer). The ratio of values obtained at 665 nm and 615 nm was used for calculation of IP1 accumulation: % Effect=(Ratiosample−Ratioblank)/(RatioAMG-1638−Ratioblank)×100. Dose curve was fitted and EC50 of each compound was calculated by using XLFit.

[1] = IP1 accumulation, HEK293 cells stably expressing GPR40, 2 hours at 37° C., % effect relative to AMG-1638, table of Biological Example 1
[2] = Table A-8 (additional examples), obtained by methods of Biological Example 1
[3] = Tables A-1a to A-7b (structure-property relationship), obtained by methods of Biological Example 1

T1 sequence (O14842 whole entry): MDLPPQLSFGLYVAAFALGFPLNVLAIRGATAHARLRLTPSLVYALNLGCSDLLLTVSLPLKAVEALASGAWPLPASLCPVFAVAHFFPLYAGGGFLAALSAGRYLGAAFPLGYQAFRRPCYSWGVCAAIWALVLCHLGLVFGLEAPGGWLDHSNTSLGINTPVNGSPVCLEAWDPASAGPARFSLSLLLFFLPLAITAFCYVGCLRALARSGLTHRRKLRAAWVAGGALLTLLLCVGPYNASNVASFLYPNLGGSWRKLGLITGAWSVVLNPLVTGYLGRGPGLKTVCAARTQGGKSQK

EC50 [1] [nM] | EC50 [2] [nM] | EC50 [3] [nM] | SMILES
132 |  |  | COc1ccc(F)c(-c2ccc(COc3cccc([C@@H](CC(=O)O)C4CC4)c3)cc2OC(C)(C)COCc2cn(CCCCCCCCCCCCCC(=O)NCCN(CCC(=O)NCCN)CCC(=O)NCCN)nn2)c1 [Example 25]
75.8 |  |  | COc1ccc(F)c(-c2ccc(COc3cccc([C@@H](CC(=O)O)C4CC4)c3)cc2OC(C)(C)COCc2cn(CCCCCCCCCCCCCC(=O)NCC[N+](C)(CCC(=O)NCCN)CCC(=O)NCCN)nn2)c1 [Example 26]
5.32 |  |  | COc1ccc(F)c(-c2ccc(COc3cccc([C@@H](CC(=O)O)C4CC4)c3)cc2OC(C)(C)COCc2cn(CCCCCCCCCCCCCCCCCC(=O)NCCN(CCC(=O)NCCN)CCC(=O)NCCN)nn2)c1 [Example 27]
4.77 |  |  | COc1ccc(F)c(-c2ccc(COc3cccc([C@@H](CC(=O)O)C4CC4)c3)cc2OC(C)(C)COCc2cn(CCCCCCCCCCCCCCCCCC(=O)NCC[N+](C)(CCC(=O)NCCN)CCC(=O)NCCN)nn2)c1 [Example 28]
> 1000 |  |  | COc1ccc(F)c(-c2ccc(COc3cccc([C@@H](CC(=O)O)C4CC4)c3)cc2OC(C)(C)Cn2cc(CCCCCCCCCCCCC(=O)NCCN(CCC(=O)NCCN)CCC(=O)NCCN)nn2)c1 [Example 29]
298 |  |  | COc1ccc(F)c(-c2ccc(COc3cccc([C@@H](CC(=O)O)C4CC4)c3)cc2OC(C)(C)Cn2cc(CCCCCCCCCCCCC(=O)NCC[N+](C)(CCC(=O)NCCN)CCC(=O)NCCN)nn2)c1 [Example 30]
2.28 |  |  | COc1ccc(F)c(-c2ccc(COc3cccc([C@@H](CC(=O)O)C4CC4)c3)cc2OC(C)(C)Cn2cc(CCCCCCCCCCCCCCCCCC(=O)NCCN(CCC(=O)NCCN)CCC(=O)NCCN)nn2)c1 [Example 31]
1.98 |  |  | COc1ccc(F)c(-c2ccc(COc3cccc([C@@H](CC(=O)O)C4CC4)c3)cc2OC(C)(C)Cn2cc(CCCCCCCCCCCCCCCCCC(=O)NCC[N+](C)(CCC(=O)NCCN)CCC(=O)NCCN)nn2)c1 [Example 32]
36.8 |  |  | COc1ccc(F)c(-c2ccc(COc3cccc([C@@H](CC(=O)O)C4CC4)c3)cc2C(OCCCCCn2cc(CCCCCCCCCCCCC(=O)NCCN(CCC(=O)NCCN)CCC(=O)NCCN)nn2)C(C)(C)C)c1 (stereo partly shown) [Example 33]
1.91 |  |  | COc1ccc(F)c(-c2ccc(COc3cccc([C@@H](CC(=O)O)C4CC4)c3)cc2C(OCCCCCn2cc(CCCCCCCCCCCCC(=O)NCC[N+](C)(CCC(=O)NCCN)CCC(=O)NCCN)nn2)C(C)(C)C)c1 (stereo partly shown) [Example 34]
1.18 |  |  | C[C@H](C(=O)O)[C@H](c1ccc2c(c1)O[C@@H](C1CCN(Cc3cc(-c4cn(CCCCCCCCCCCCCCCCCC(=O)NCC[N+](C)(C)C)nn4)ccc3OC(F)(F)F)CC1)CC2)C1CC1 [Example 35]

Second part, the compound before the results:

SMILES | EC50 [1] [nM] | EC50 [2] [nM] | EC50 [3] [nM]
C[C@H](C(=O)O)[C@H](c1ccc2c(c1)O[C@@H](C1CCN(Cc3cc(-n4cc(CCCCCCCCCCCCC(=O)NCCN(CCC(=O)NCCN)CCC(=O)NCCN)nn4)ccc3OC(F)(F)F)CC1)CC2)C1CC1 [Example 1, (2S,3R)-3-((R)-2-(1-(5-(4-(13-((2-(bis(3-((2-aminoethyl)amino)-3-oxopropyl)amino)ethyl)amino)-13-oxotridecyl)-1H-1,2,3-triazol-1-yl)-2-(trifluoromethoxy)benzyl)piperidin-4-yl)chroman-7-yl)-3-cyclopropyl-2-methylpropanoic acid] | 5.46 | 5.46 | 5.46
C[C@H](C(=O)O)[C@H](c1ccc2c(c1)O[C@@H](C1CCN(Cc3cc(-n4cc(CCCCCCCCCCCCC(=O)NCC[N+](C)(CCC(=O)NCCN)CCC(=O)NCCN)nn4)ccc3OC(F)(F)F)CC1)CC2)C1CC1 [Example 2] | 9.46 | 9.46 | 9.46
C[C@H](C(=O)O)[C@H](c1ccc2c(c1)O[C@@H](C1CCN(Cc3cc(-n4cc(CCCCCCCCCCCCCCCCCC(=O)NCCN(CCC(=O)NCCN)CCC(=O)NCCN)nn4)ccc3OC(F)(F)F)CC1)CC2)C1CC1 [Example 3] | 1.1 |  | 1.1
C[C@H](C(=O)O)[C@H](c1ccc2c(c1)O[C@@H](C1CCN(Cc3cc(-n4cc(CCCCCCCCCCCCCCCCCC(=O)NCC[N+](C)(CCC(=O)NCCN)CCC(=O)NCCN)nn4)ccc3OC(F)(F)F)CC1)CC2)C1CC1 [Example 4] | 0.31 |  | 0.31
C[C@H](C(=O)O)[C@H](c1ccc2c(c1)O[C@@H](C1CCN(Cc3cc(-c4cn(CCCCCCCCCCCCCC(=O)NCCN(CCC(=O)NCCN)CCC(=O)NCCN)nn4)ccc3OC(F)(F)F)CC1)CC2)C1CC1 [Example 5] | 15.2 |  | 15.2
C[C@H](C(=O)O)[C@H](c1ccc2c(c1)O[C@@H](C1CCN(Cc3cc(-c4cn(CCCCCCCCCCCCCCCCCC(=O)NCCN(CCC(=O)NCCN)CCC(=O)NCCN)nn4)ccc3OC(F)(F)F)CC1)CC2)C1CC1 [Example 6] | 1.21 |  | 1.21
C[C@H](C(=O)O)[C@H](c1ccc2c(c1)O[C@@H](C1CCN(Cc3cc(-c4cn(CCCCCCCCCCCCCCCCCC(=O)NCC[N+](C)(CCC(=O)NCCN)CCC(=O)NCCN)nn4)ccc3OC(F)(F)F)CC1)CC2)C1CC1 [Example 7] | 0.65 |  | 0.65
COc1ccc(F)c(-c2ccc(COc3cccc([C@@H](CC(=O)O)C4CC4)c3)cc2C(C)(C)c2cn(CCCCCCCCCCCCCC(=O)NCCN(CCC(=O)NCCN)CCC(=O)NCCN)nn2)c1 [Example 8] | > 1000 |  | 
COc1ccc(F)c(-c2ccc(COc3cccc([C@@H](CC(=O)O)C4CC4)c3)cc2C(C)(C)c2cn(CCCCCCCCCCCCCC(=O)NCC[N+](C)(CCC(=O)NCCN)CCC(=O)NCCN)nn2)c1 [Example 9] | 640 |  | 
COc1ccc(F)c(-c2ccc(COc3cccc([C@@H](CC(=O)O)C4CC4)c3)cc2C(C)(C)c2cn(CCCCCCCCCCCCCCCCCC(=O)NCCN(CCC(=O)NCCN)CCC(=O)NCCN)nn2)c1 [Example 10] | 32.7 |  | 
COc1ccc(F)c(-c2ccc(COc3cccc([C@@H](CC(=O)O)C4CC4)c3)cc2C(C)(C)c2cn(CCCCCCCCCCCCCCCCCC(=O)NCC[N+](C)(CCC(=O)NCCN)CCC(=O)NCCN)nn2)c1 [Example 11] | 20.3 |  | 
COc1ccc(F)c(-c2ccc(COc3cccc([C@@H](CC(=O)O)C4CC4)c3)cc2C(OCCCCCn2cc(CCCCCCCCCCCCCCCCCC(=O)NCCN(CCC(=O)NCCN)CCC(=O)NCCN)nn2)C(C)(C)C)c1 (stereo partly shown) [Example 12] | 1.12 |  | 
COc1ccc(F)c(-c2ccc(COc3cccc([C@@H](CC(=O)O)C4CC4)c3)cc2C(OC)C(C)(C)Cn2cc(CCCCCCCCCCCCCCCCCC(=O)NCCN(CCC(=O)NCCN)CCC(=O)NCCN)nn2)c1 (stereo partly shown) [Example 14] | 8.8 |  | 
COc1ccc(F)c(-c2ccc(COc3cccc([C@@H](CC(=O)O)C4CC4)c3)cc2C(OC)C(C)(C)Cn2cc(CCCCCCCCCCCCCCCCCC(=O)NCC[N+](C)(CCC(=O)NCCN)CCC(=O)NCCN)nn2)c1 (stereo partly shown) [Example 15] | 58.4 |  | 
COc1ccc(F)c(-c2ccc(COc3cccc([C@@H](CC(=O)O)C4CC4)c3)cc2CC(C)(C)Cn2cc(CCCCCCCCCCCCC(=O)NCCN(CCC(=O)NCCN)CCC(=O)NCCN)nn2)c1 [Example 16] | 460 | 706 | 460
COc1ccc(F)c(-c2ccc(COc3cccc([C@@H](CC(=O)O)C4CC4)c3)cc2CC(C)(C)Cn2cc(CCCCCCCCCCCCC(=O)NCC[N+](C)(CCC(=O)NCCN)CCC(=O)NCCN)nn2)c1 [Example 17] | 152 | 169 | 152
COc1ccc(F)c(-c2ccc(COc3cccc([C@@H](CC(=O)O)C4CC4)c3)cc2CC(C)(C)Cn2cc(CCCCCCCCCCCCCCCCCC(=O)NCCN(CCC(=O)NCCN)CCC(=O)NCCN)nn2)c1 [Example 18] | 2.25 |  | 2.25
COc1ccc(F)c(-c2ccc(COc3cccc([C@@H](CC(=O)O)C4CC4)c3)cc2CC(C)(C)Cn2cc(CCCCCCCCCCCCCCCCCC(=O)NCC[N+](C)(CCC(=O)NCCN)CCC(=O)NCCN)nn2)c1 [Example 19] | 1.66 |  | 1.66
COc1ccc(F)c(-c2ccc(COc3cccc([C@@H](CC(=O)O)C4CC4)c3)cc2CC(C)(C)Cc2cn(CCCCCCCCCCCCCC(=O)NCCN(CCC(=O)NCCN)CCC(=O)NCCN)nn2)c1 [Example 21] | 49.4 |  | 49
COc1ccc(F)c(-c2ccc(COc3cccc([C@@H](CC(=O)O)C4CC4)c3)cc2CC(C)(C)Cc2cn(CCCCCCCCCCCCCC(=O)NCC[N+](C)(CCC(=O)NCCN)CCC(=O)NCCN)nn2)c1 [Example 22] | 49 |  | 49
COc1ccc(F)c(-c2ccc(COc3cccc([C@@H](CC(=O)O)C4CC4)c3)cc2CC(C)(C)Cc2cn(CCCCCCCCCCCCCCCCCC(=O)NCCN(CCC(=O)NCCN)CCC(=O)NCCN)nn2)c1 [Example 23] | 0.96 |  | 0.96
COc1ccc(F)c(-c2ccc(COc3cccc([C@@H](CC(=O)O)C4CC4)c3)cc2CC(C)(C)Cc2cn(CCCCCCCCCCCCCCCCCC(=O)NCC[N+](C)(CCC(=O)NCCN)CCC(=O)NCCN)nn2)c1 [Example 24] | 2.04 |  | 2.04
